Where “and” joins values, the source holds several entries; their conditions need not be identical. Identical values can stand only once. Marks after values point to notes of the source that are not given here.
Experiments:
[1] = biological target: T1, rat liver mitochondrial low Km ALDH (Rattus norvegicus, UniProt P11884); assay: Liver aldehyde dehydrogenase determined in vivo; conditions: intraperitoneal (IP), liver taken eight hours later
T1 construct: differential centrifugation carried out to isolate the mitochondrial faction; from tissue; host or cells: liver mitochondria of male Sprague-Dawley derived rats
T1 sequence (P11884 20-519): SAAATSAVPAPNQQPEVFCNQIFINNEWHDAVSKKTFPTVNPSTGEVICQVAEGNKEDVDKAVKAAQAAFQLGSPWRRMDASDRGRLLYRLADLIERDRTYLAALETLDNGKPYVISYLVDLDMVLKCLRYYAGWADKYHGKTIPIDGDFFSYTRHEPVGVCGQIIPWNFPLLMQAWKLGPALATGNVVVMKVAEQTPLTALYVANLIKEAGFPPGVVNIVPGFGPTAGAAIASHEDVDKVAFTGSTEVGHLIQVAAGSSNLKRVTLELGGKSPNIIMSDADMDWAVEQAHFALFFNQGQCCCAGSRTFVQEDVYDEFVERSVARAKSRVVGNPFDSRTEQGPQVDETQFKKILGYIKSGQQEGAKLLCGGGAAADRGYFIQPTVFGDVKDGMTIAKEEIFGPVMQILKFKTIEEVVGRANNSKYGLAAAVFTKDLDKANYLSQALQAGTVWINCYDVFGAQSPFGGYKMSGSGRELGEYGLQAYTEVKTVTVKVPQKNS
Procedure: To determine if a compound of formula (I) can inhibit aldehyde dehydrogenase activity in vivo, doses of DETC-Me SO (1.3 mg/kg, 2.6 mg/kg, 5.2 mg/kg, 10.3 mg/kg and 20.6 mg/kg), were administered to male Sprague Dawley derived rats weighing 200-400 g. The rats were bred from a resident colony maintained in the Animal Care Unit at the University of Kansas. Rats were maintained on a 12-hour lights cycle with access to food and water ad lib until the night before an experiment, at which time food was removed. Animals were fasted for 12 hours prior to drug administration.
All experiments were carried out in the morning. Rats were treated with the doses of DETC-Me SO or DETC-Me described above, which were dissolved in polyethylene glycol 200. Eight hours later, the rats were anesthetized with carbon-dioxide and then decapitated. The liver was quickly removed and the low Km aldehyde dehydrogenase determined. Control rats were treated with […] vehicle only, and each control data point also represents an average of four rats.
The liver from drug-treated and control rats was homogenized in 0.25 M sucrose and differential centrifugation was carried out to isolate the mitochondrial fraction. The mitochondria were solubilized with sodium deoxycholate, and mitochondrial low Km and total (high and low) aldehyde dehydrogenase activity determined by the method of S. O. C. Tottmar et al., cited above.

[2] = system: brain glutamate receptors (synaptic membranes); assay: [3H]glutamate binding to mouse brain synaptic membranes in vitro
Procedure: Binding Studies—Synaptic membranes (100 μg protein) were isolated (Y. H. Lee et al., J. Neurosci. Res. 40, 797-806 (1995)) form whole brain homogenate of male Swiss Webster mice and were incubated in 0.1 mM L-glutamate for 30 minutes at 25° C. After addition of 50 nM of [^3H]glutamate, incubation was continued for an additional 45 minutes. Reactions were terminated by centrifugation at 4° C. to separate membrane-bound from free radioactivity. […] The rate (k) and maximum percent blockage of glutamate binding (M) by DETC-MeSO (1) during the incubation time (t) was determined by fitting the equation [% inhibition]=M(1−e^−kh) to these day by use of the program Grafit (Erithicus Software Ltd.). This equation was derived for first-order inactivation by a group specific reagent that gives a partial effect. If “A” is the percent of binding activity that remains after extensive exposure (t=of the receptor to excess DETC-MeSO, then M=100−A)e^−kh+A; substituting (100−M) for “A” and [100−% inhibition] for “a” in this equation gives the one employed for purposes of data analyses. […] A second equation was employed in the analysis of binding data that defines partial, irreversible inactivation of two distinct groups of receptors [% inhibition]=M1(1−e^−k1^IT)+M2(1−e^−k1^IT), where M1 and M2 are the maximum amount of inhibition obtained for complete modification of each receptor population and k1 and k2 are the rate constants for these modifications, respectively.
Six determinations of the effect of DETC-MeSO were made at each concentration tested (1, 5, 10, 50, 100, 200, and 1000 μM) and the average value is shown with error bars for one standard deviation.

MetSOX-induced seizures = MetSOX-induced seizures in mice; format: in vivo
Procedure: Animals—Male Swiss Webster mice (20-30 g) or male Sprague-Dawley rats (250-300 g) were used. All that employed animals were conducted in strict compliance with the NIH guidelines on animal use and institutional regulations concerning animal experimentation. Animals were exposed to hyperbaric oxygen in a specify designed press chamber as previously described (M. D. Faiman et al., Biochem. Pharmacol., 20, 3049-3067 (1971); M. D. Faiman et al. Aerosp. Med.,45, 29032.(1974)). The time to first clonic-tonic seizure after brining animals to a final pressure of five atmospheres of 100% oxygen or after intraperitoneal injection of convulsants was noted by. criteria outlined previously (M. D. Faiman et al. (1971), supra M. D. Faiman et al. (1974), supra). Unless otherwise specified, the ability of DETC-MeSO to prevent seizures was tested by intraperitoneal injection of 5.2 mg/kg of DETC-MeSO 1-2 hours prior to bringing the animal to a final pressure of 5 atmospheres of 100% oxygen or intraperitoneal injection of N-methyl-D-asparate (NMA) (125 mg/kg) r L-methionine sulfoximine (MetSOX) (250 mg/kg). Evaluation of the statistics for whole animal experiments or for changes in brain glutamate binding after administration of DETC-MeSO was conducted by use of the program GraphPAD InStat from Graph PAD Software (San Diego, Calif.).

[3] = double exponential fit, nominal values

## CCN(CC)C(=O)[S+](C)[O-] (stereo not drawn) [DETC-MeSO, S-Methyl-N,N-Diethylthiolcarbamate Sulfoxide]
[1]
  dose required to inhibit 50% of the low Km ALDH: 3.6 mg/kg
[2]; 0.1 mM, absence of glycine (FIG. 2)
  inhibition of glutamate binding: 53%
[2]; 0.1 mM, in the presence of glycine (0.1 mM)
  irreversible blockage of glutamate binding: 48±3%
[2]; [3]
  M1, maximum inhibition of first receptor population: 15%
  M2, maximum inhibition of second receptor population: 43%
  k1, rate constant of first receptor population: 900 M⁻¹ s⁻¹ and 901 M⁻¹ s⁻¹
  k2, rate constant of second receptor population: 8 M⁻¹ s⁻¹
[2]; in vitro, without glycine
  effect on glutamate binding to synaptic membrane preparations: time-dependent, partial, and irreversible loss of their ability to bind glutamate
[2]; single exponential fit
  rate (k) of blockage of glutamate binding: 25±10 M^−s^−1
[2]; single exponential fit, 1-1000 μM
  maximum percent blockage of glutamate binding (M): 58±7%
MetSOX-induced seizures
  effect on time free of MetSOX seizures: more than doubled
MetSOX-induced seizures; MetSOX 250 mg/kg, 5.2 mg/kg i.p. 1-2 hours prior, ± standard error
  mean time to seizure: 307 ± 60 min
MetSOX-induced seizures; MetSOX 250 mg/kg, observation six hours
  number of animals that exhibited the effect/total number of animals in the group: (6/8)^a

Reference: patent US20050037975A1, “Method for treatment of glutamate related disorders” (priority 1997, published 2005)
